These results are taken from patent publication US6362360B1, “3-aryl-2-hydroxypropionic acid derivative III” (AstraZeneca AB, priority 1998, dated 2002).

For this data set, the system named is obese diabetic mice of the Umeå ob/ob strain. Briefly: Biological activity in obese diabetic ob/ob mice (plasma glucose, insulin, triglycerides; weight gain). Type of data set: in vivo. As for the experimental part: The biological activity of the compound of the invention was tested in obese diabetic mice of the Umeå ob/ob strain. Groups of mice received the test compound by gavage once daily for 7 days. On the last day of the experiment the animals were anesthetized 2 h after dose in a non-fed state and blood was collected from an incised artery. Plasma was analyzed for concentration of glucose, insulin and triglycerides. A group of untreated obese diabetic mice of the same age served as control. The weights of the mice were measured before and after the experiment and the obtained weight gains were compared to the weight gains of the control animals. The individual values for glucose, insulin and triglyceride levels of the mice from the test group were expressed as the percentage rage of the corresponding values from the control group. The desired “therapeutic effect” was calculated as the average percent reduction of the three variables glucose, insulin and triglycerides below the levels in the control animals. The therapeutic effect of the tested compounds according to the invention was compared to the same effect in the prior art compound troglitazone, administrered by gavage in the oral dose of 100 μmol/kg for 7 days.

On to `CCO[C@@H](Cc1ccc(OCCc2ccc(NC(=O)OC(C)(C)C)cc2)cc1)C(=O)O` [compound of the invention, 3-{4-[2-(4-tert-Butoxycarbonylaminophenyl)ethoxy]phenyl}-(S)-2-ethoxy propanoic acid], for which the “therapeutic effect (average percent reduction of glucose, insulin and triglycerides below the levels in the control animals)” value (gavage once daily for 7 days, compared to troglitazone in the same oral dose (100 μmol/kg for 7 days)) is listed as “superior effects”. In addition, for the setting “weights measured before and after the 7-day experiment, compared to control animals”, the weight gain result was “without undesirable weight gain”.
